Reference: US11535633B2, “Fused tricyclic heterocycle compounds and therapeutic uses thereof” (Jiangsu Hengrui Medicine Co., Ltd., priority 2018, dated 2022)
pEC50: −log10 of the molar value.

Experiments:
Human PBMC cells = assay: IFNβ secretion in human PBMC; type: cell-based; conditions: IFNβ in supernatant by ELISA, 5 hours incubation
Description: Test Example 3. IFNβ Secretion in Human PBMC
• 1. Human PBMC cells (STEMCELL Technologies) • 2. Lymphocyte Medium (Zenbio) • 3. Culture and compound dilution media: RPMI with high glucose and glutamine (Genesee, Cat. #25-506), 10% fetal bovine serum (Life Technologies, Cat. #10082147), 100 μg/ml Normocin (InvivoGen, Cat. #ant-nr-2) and Penicillin-Streptomycin (100×) (Life Technologies, Cat. #15140122) • 4. Human IFNβ Quantikine ELISA kit (R&D systems) • 5. Infinite M1000 plate reader (TECAN) Experimental Procedure
Cryopreserved peripheral blood human mononuclear cells (PBMCs) were rapidly thawed and resuspended in Lymphocyte Media and centrifuged at 500×g for 5 minutes. The supernatant was removed and the cell pellets were gently resuspended in cell culture and compound dilution media. Human PBMC cells were plated in a 96-well format at a concentration of 1.5×10^5 cells per well. The test compounds, at varying concentrations, or vehicle control (<0.3% DMSO) were mixed with the cells giving a final volume of 150 μl per well. The plates were incubated for 5 hours in a humidified, 5% CO2 incubator at 37° C. After incubation, the human IFNβ in the supernatant and the IFNβ standard controls were measured using human IFNβ Quantikine ELISA kit according to the manufacturer's protocol. The absorbance at 450 nm was measured with Infinite M1000 plate reader and corrected by background reading at 540 nm of each well. The amount of […] based on the standard curves. The plot of IFNβ concentration versus the log of compound concentration was fit in GraphPad Prism with a 4-parameter concentration response equation to calculate EC50 and Emax.

[1] = target: T1, hSTING c-terminal domain (purified hSTING aa154-342) (Homo sapiens, UniProt Q86WV6); assay: Thermal shift assay for measuring the relative binding affinity to hSTING c-terminal domain; conditions: Tm of sample minus mean Tm of negative control (buffer, 2% DMSO), SYPRO Orange
T1 construct: Purified hSTING (aa154-342)
Description: Test Example 1. Thermal Shift Assay for Measuring the Relative Binding Affinity to hSTING c-Terminal Domain
From each of the 10 mM stock solutions of compounds in DMSO, dilutions are made to create samples with three concentrations 10 mM, 5 mM and 2.5 mM. From these dilutions a final 50 fold dilution is made into assay buffer, giving concentrations of 200 μM, 100 μM, and 50 μM. From each of the buffer dilutions, 5 μL is added to the 384 well assay plate. A positive control is setup with cGAMP using the same dilution scheme as the ligands. A baseline thermal shift for the negative control is determined using buffer and 2% DMSO.
An aliquot of protein is thawed on ice and SYPRO orange reagent is brought to room temperature. The 5000× SYPRO orange stock is diluted in assay buffer to a concentration of 10×. Protein is diluted to a concentration of 10 μM in the prepared buffer/dye solution. Five micro-liters of protein/buffer/dye solution is added to each of the sample and control wells, and the plate is sealed with the provided films. The plate is centrifuged for 5 min at 20° C. at 1000 rpm.
On the Light Cycler instrument, measurements are made over a temperature gradient from 20° C. to 99° C. at 0.07° C./s and data acquisitions collected at a rate of 8/° C. is used to measure the change in fluorescence as a function of temperature. Data analysis is performed using the Roche Light Cycler Software to determine the melting temperature (Tm ° C.) of each sample. A mean Tm ° C. for the negative control is calculated and subtracted from each of the samples to generate the ΔTm ° C. values for each of the ligands.
The relative binding affinity to hSTING c-terminal domain of the compounds of the present invention was determined by the above assay, and ΔTm ° C. values are shown in the following table 1.

[2] = target: T2, STING in THP1-Dual KI-hSTING-R232 cells (Homo sapiens, UniProt Q86WV6, H232R); assay: Human THP1 reporter cell assay (IRF luciferase reporter); type: cell-based; conditions: 24 hours incubation
T2 construct: host or cells: THP1-Dual KI-hSTING-R232 cells (human monocytic THP-1 reporter line)
Description: Test Example 2. Human THP1 Reporter Cell Assay
• 1. Human THP1-Dual KI-hSTING-R232 Cells (InvivoGen, Cat. #thpd-r232) • 2. QUANTI-LUC (InvivoGen, Cat. #rep-qlc2) • 3. Media for cell culture and compound dilution: RPMI with high glucose and glutamine (Genesee, Cat. #25-506), 10% fetal bovine serum (Life Technologies, Cat. #10082147), 25 mM HEPES (Genesee, Cat. #25-534), 100 μg/ml Normocin (InvivoGen, Cat. #ant-nr-2), 10 μg/ml blasticidin (InvivoGen, Cat. #ant-bl-05), 100 μg/ml Zeocin (InvivoGen, Cat. #ant-zn-5p) and Penicillin-Streptomycin (100×) (Life Technologies, Cat. #15140122) • 4. Infinite M1000 plate reader (TECAN) Experimental Procedure
Activation of STING in THP1-Dual KI-hSTING-R232 cells was determined by measuring the luminescence signal resulting from the expression of the IRF luciferase reporter gene. All reagent preparation and assay procedures were conducted according to the protocols provided by InvivoGen. In brief, test compounds and cells (1×10^5 cells per well) were dispensed into 96-well plates with a final volume per well of 150 μl. Plates were incubated in a humidified, 5% CO2 incubator at 37° C. for 24 hours. The expression level of the reporter gene was measured by transferring 20 μl of the supernatant to a non-transparent 96-well plate to which 50 μl of QUANTI-LUC was dispensed into each well. The resulting luminescence signal was immediately read using a TECAN plate reader. The background luminescence signal from media was subtracted. The fold induction effect of the luminescence signal at each compound concentration was determined relative to controls that lack compound treatment. The plot of fold induction effect versus the log of compound concentration was fit in GraphPad Prism with a 4-parameter concentration response equation to calculate EC50 and Emax.
Activation of STING in THP1 of the compounds in the present invention was determined by the above assay, and EC50 values are shown in the following table 2.

T2 sequence (Q86WV6 whole entry H232R): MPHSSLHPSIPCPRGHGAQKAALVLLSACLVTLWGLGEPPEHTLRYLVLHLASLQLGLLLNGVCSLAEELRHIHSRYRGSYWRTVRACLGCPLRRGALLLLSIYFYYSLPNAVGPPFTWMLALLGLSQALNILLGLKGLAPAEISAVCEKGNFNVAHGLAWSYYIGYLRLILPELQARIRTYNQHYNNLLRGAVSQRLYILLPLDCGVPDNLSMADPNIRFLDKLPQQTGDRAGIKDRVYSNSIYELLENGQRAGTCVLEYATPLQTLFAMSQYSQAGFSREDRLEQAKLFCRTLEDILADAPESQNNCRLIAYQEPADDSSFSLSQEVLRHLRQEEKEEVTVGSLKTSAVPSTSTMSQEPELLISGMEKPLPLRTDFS
T1 sequence (Q86WV6 154-342): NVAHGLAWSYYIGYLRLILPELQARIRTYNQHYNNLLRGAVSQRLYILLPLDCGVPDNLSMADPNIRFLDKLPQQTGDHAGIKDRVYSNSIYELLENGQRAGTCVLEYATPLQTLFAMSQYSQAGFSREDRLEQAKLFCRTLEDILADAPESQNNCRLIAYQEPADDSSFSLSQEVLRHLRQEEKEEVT

| Structure (SMILES) | pEC50 (Human PBMC cells) | ΔTm at 100 µM [1] | pEC50 [2] |
| --- | --- | --- | --- |
| C=CC[C@H]1COc2cc(C(N)=O)cc3nc(NC(=O)c4cc(C)nn4CCC)n1c23 [Example 11, (S)-3-allyl-2-(3-methyl-1-propyl-1H-pyrazole-5-carboxamido)-3,4-dihydro-5-oxa-1,2a-diazaacenaphthylene-7-carboxamide] | 4.77 | 5.5 °C | – |
| CCn1nc(C)cc1C(=O)Nc1nc2cc(C(N)=O)cc(OCCCN3CCOCC3)c2n1CCC[C@H]1COc2cc(C(N)=O)cc3nc(NC(=O)c4cc(C)nn4CC)n1c23 [Example 22, (S)-3-(3-(5-carbamoyl-2-(1-ethyl-3-methyl-1H-pyrazole-5-carboxamido)-7-(3-morpholinopropoxy)-1H-benzo[d]imidazol-1-yl)propyl)-2-(1-ethyl-3-methyl-1H-pyrazole-5-carboxamido)-3,4-dihydro-5-oxa-1,2a-diazaacenaphthylene-7-carboxamide] | 6.47 | – | 7.00 |
| CCn1nc(C)cc1C(=O)Nc1nc2cc(C(N)=O)cc(OC)c2n1CC=C[C@H]1COc2cc(C(N)=O)cc3nc(NC(=O)c4cc(C)nn4CC)n1c23 [Example 14, (S)-3-(3-(5-carbamoyl-2-(1-ethyl-3-methyl-1H-pyrazole-5-carboxamido)-7-methoxy-1H-benzo[d]imidazol-1-yl)prop-1-en-1-yl)-2-(1-ethyl-3-methyl-1H-pyrazole-5-carboxamido)-3,4-dihydro-5-oxa-1,2a-diazaacenaphthylene-7-carboxamide] | 5.74 | 4 °C | – |
| C/C=C\C[C@H]1COc2cc(C(N)=O)cc3nc(NC(=O)c4cc(C)nn4CC)n1c23 [Example 5-2, (S,Z)-3-(but-2-en-1-yl)-2-(1-ethyl-3-methyl-1H-pyrazole-5-carboxamido)-3,4-dihydro-5-oxa-1,2a-diazaacenaphthylene-7-carboxamide] | 5.72 | – | 5.89 |
| CCn1nc(C)cc1C(=O)Nc1nc2cc(C(N)=O)cc(OCCCO)c2n1CCC[C@H]1COc2cc(C(N)=O)cc3nc(NC(=O)c4cc(C)nn4CC)n1c23 [Example 19, (S)-3-(3-(5-carbamoyl-2-(1-ethyl-3-methyl-1H-pyrazole-5-carboxamido)-7-(3-hydroxypropoxy)-1H-benzo[d]imidazol-1-yl)propyl)-2-(1-ethyl-3-methyl-1H-pyrazole-5-carboxamido)-3,4-dihydro-5-oxa-1,2a-diazaacenaphthylene-7-carboxamide] | 6.15 | – | – |
| CCn1nc(C)cc1C(=O)Nc1nc2cc(C(N)=O)cc(OC)c2n1CCC[C@H]1COc2cc(C(N)=O)cc3nc(NC(=O)c4cc(C)nn4CC)n1c23 [Example 13, (S)-3-(3-(5-carbamoyl-2-(1-ethyl-3-methyl-1H-pyrazole-5-carboxamido)-7-methoxy-1H-benzo[d]imidazol-1-yl)propyl)-2-(1-ethyl-3-methyl-1H-pyrazole-5-carboxamido)-3,4-dihydro-5-oxa-1,2a-diazaacenaphthylene-7-carboxamide] | 7.00 | 10.7 °C | 7.52 |
| CCn1nc(C)cc1C(=O)Nc1nc2cc(C(N)=O)cc(OC)c2n1C/C=C/C[C@H]1COc2cc(C(N)=O)cc3nc(NC(=O)c4cc(C)nn4CC)n1c23 [Example 15, (S,E)-3-(4-(5-carbamoyl-2-(1-ethyl-3-methyl-1H-pyrazole-5-carboxamido)-7-methoxy-1H-benzo[d]imidazol-1-yl)but-2-en-1-yl)-2-(1-ethyl-3-methyl-1H-pyrazole-5-carboxamido)-3,4-dihydro-5-oxa-1,2a-diazaacenaphthylene-7-carboxamide] | 4.72 | 3 °C | – |
| CCn1nc(C)cc1C(=O)Nc1nc2cc(C(N)=O)ccc2n1CCC[C@H]1COc2cc(C(N)=O)cc3nc(NC(=O)c4cc(C)nn4CC)n1c23 [Example 18, (S)-3-(3-(5-carbamoyl-2-(1-ethyl-3-methyl-1H-pyrazole-5-carboxamido)-1H-benzo[d]imidazol-1-yl)propyl)-2-(1-ethyl-3-methyl-1H-pyrazole-5-carboxamido)-3,4-dihydro-5-oxa-1,2a-diazaacenaphthylene-7-carboxamide] | 6.52 | – | 6.80 |
| CCn1nc(C)cc1C(=O)Nc1nc2cc(C(N)=O)cc(OCCCOC)c2n1CCC[C@H]1COc2cc(C(N)=O)cc3nc(NC(=O)c4cc(C)nn4CC)n1c23 [Example 21, (S)-3-(3-(5-carbamoyl-2-(1-ethyl-3-methyl-1H-pyrazole-5-carboxamido)-7-(3-methoxypropoxy)-1H-benzo[d]imidazol-1-yl)propyl)-2-(1-ethyl-3-methyl-1H-pyrazole-5-carboxamido)-3,4-dihydro-5-oxa-1,2a-diazaacenaphthylene-7-carboxamide] | – | 13 °C | 7.22 |
| CCn1nc(C)cc1C(=O)Nc1nc2cc(C(N)=O)cc(OCCO)c2n1CCC[C@H]1COc2cc(C(N)=O)cc3nc(NC(=O)c4cc(C)nn4CC)n1c23 [Example 20, (S)-3-(3-(5-carbamoyl-2-(1-ethyl-3-methyl-1H-pyrazole-5-carboxamido)-7-(2-hydroxyethoxy)-1H-benzo[d]imidazol-1-yl)propyl)-2-(1-ethyl-3-methyl-1H-pyrazole-5-carboxamido)-3,4-dihydro-5-oxa-1,2a-diazaacenaphthylene-7-carboxamide] | – | 13 °C | 7.00 |
| C=CC[C@H]1COc2cc(C(N)=O)cc3nc(NC(=O)c4cc(C)nn4CC)n1c23 [Example 1, (S)-3-allyl-2-(1-ethyl-3-methyl-1H-pyrazole-5-carboxamido)-3,4-dihydro-5-oxa-1,2a-diazaacenaphthylene-7-carboxamide] | 5.96 | 5.7 °C | 5.80 |
| C/C=C/C[C@H]1COc2cc(C(N)=O)cc3nc(NC(=O)c4cc(C)nn4CC)n1c23 [Example 5-3, (S,E)-3-(but-2-en-1-yl)-2-(1-ethyl-3-methyl-1H-pyrazole-5-carboxamido)-3,4-dihydro-5-oxa-1,2a-diazaacenaphthylene-7-carboxamide] | 5.82 | – | 5.89 |
